# According to patent US20210393553A1, “PHARMACEUTICAL COMBINATIONS FOR THE TREATMENT OF PAIN” (IMUNEKS FARMA ILAC SANAYI VE TICARET A.S., priority 2018, published 2021):
# Several values for one entry are separate records, joined by “and”; a condition that tells them apart may be missing. Equal entries are not always repeated.
# Tests used:
# rats = assay: Tail Flick test; format: in vivo
# [1] = tested on: female Albino Wistar rats; assay: Hot plate test (heat induced pain model); format: in vivo
SMILES,"tail flick results (tail flicking reaction time) (rats; 1 hour after oral administration by gavage, same dosages as hot plate study, average of 3 measurements)","hot plate test latency ([1]; 15 min after oral gavage, hot plate 52.5° C., group average of 7 rats, cut-off 20 seconds, doses per Table 2)","hot plate test latency ([1]; 30 min after oral gavage, hot plate 52.5° C., group average of 7 rats, cut-off 20 seconds, doses per Table 2)","hot plate test latency ([1]; 45 min after oral gavage, hot plate 52.5° C., group average of 7 rats, cut-off 20 seconds, doses per Table 2)","hot plate test latency ([1]; 60 min after oral gavage, hot plate 52.5° C., group average of 7 rats, cut-off 20 seconds, doses per Table 2)","analgesic effect in the hot plate test, in words ([1]; comparison between groups / versus placebo)","tail flick results (tail flicking reaction time) (rats; rat, in vivo, po)","time of peak of activity in hot plate test ([1]; rat, in vivo)","hot plate test latency ([1]; rat, in vivo, po)"
"CC(C(=O)O)c1ccc(-c2ccccc2)c(F)c1 (stereo not drawn) [FBP, Flurbiprofen]",4.95 s,4.87 s,5.65 s,5.15 s,4.96 s,lowest analgesic effect compared to all the other groups except the placebo group,,,
COc1cccc(C2(O)CCCCC2CN(C)C)c1 (stereo not drawn) [Tramadol],,,,,,,5.81 s,30 min,5.49 s and 6.90 s and 6.03 s and 6.19 s
